Measurements published in article PMC2151593 (The Journal of General Physiology, 2006).

Key:
[1] = biological target: Shaker T449F (Drosophila melanogaster, UniProt P08510, C301S/C308S/DEL6-46/T449F); assay type: cell-based
[2] = biological target: T1, Shaker Thr449 (wild type) (Drosophila melanogaster, UniProt P08510, C301S/C308S/DEL6-46); test: Extracellular TEA block of voltage-clamped potassium currents, Shaker with Thr; assay type: cell-based; conditions: Thr at 449 relative to Phe; ΔΔG = RT ln(K i,X/K i,Phe)
[3] = system: Shaker T449X, X = 4F-Phe; assay type: cell-based; conditions: 4F-Phe at 449 relative to Phe; ΔΔG = RT ln(K i,X/K i,Phe)
[4] = system: Shaker T449X, X = 3,5F-Phe; assay type: cell-based; conditions: 3,5F-Phe at 449 relative to Phe; ΔΔG = RT ln(K i,X/K i,Phe)
[5] = system: Shaker T449X, X = 3,4,5F-Phe; assay type: cell-based; conditions: 3,4,5F-Phe at 449 relative to Phe; ΔΔG = RT ln(K i,X/K i,Phe)
[6] = system: Shaker T449X, X = Cha; assay type: cell-based
[7] = system: Shaker, fluorinated derivatives of Phe449; test: Voltage dependence of TEA block, all fluorinated derivatives of Phe449; assay type: cell-based
[8] = system: KcsA; test: TEA block of KcsA; assay type: biochemical, Streptomyces lividans; conditions: higher than for Shaker T449F
[9] = biological target: T1, Shaker Thr449 (wild type); conditions: ref Heginbotham and MacKinnon, 1992; cited from earlier work
[10] = system: Shaker Tyr449; conditions: ref Heginbotham and MacKinnon, 1992; cited from earlier work
[11] = biological target: KcsA; conditions: read-out: K i for TEA block; KcsA (Tyr82); ref Heginbotham et al., 1999; cited from earlier work
[12] = benzene compared with hexafluorobenzene; ref Leo et al., 1971; cited from earlier work

Compound `CC[N+](CC)(CC)CC` [TEA, tetraethylammonium] has a ΔΔG ([1]; Phe at 449 (reference), ΔΔG = RT ln(K i,X/K i,Phe), RT 0.58 kcal/mol) of 0 kcal/mol, a ΔΔG [2] of 2.58 kcal/mol and a ΔΔG [3] of 1.23 kcal/mol. The ΔΔG [4] was 2.78 kcal/mol, the ΔΔG [5] was 3.54 kcal/mol and the ΔΔG ([6]; Cha at 449 relative to Phe, ΔΔG = RT ln(K i,X/K i,Phe)) was 3.75 kcal/mol. For the same compound, the “effect on TEA affinity (decrease relative to Phe)” value ([6]; nonaromatic residue Cha at 449) was 640 fold, the “voltage dependence of block” value [7] was 2–8% and the “K i for TEA block of KcsA relative to Shaker T449F” value [8] was ~10 fold. For the same compound, the “fraction of the transmembrane electric field sensed by TEA” value [9] was 19%, the “fraction of the transmembrane electric field sensed by TEA” value [10] was 4% and the Ki [11] was 3.2 mM.
In the case of `CC[As+](CC)(CC)CC` [TEAs, tetraethylarsonium], the “factor by which TEAs is a weaker blocker (larger inhibitory constant) than TEA” value ([1]; Shaker T449F, unpublished data) is reported as ~25 fold.
For `Fc1c(F)c(F)c(F)c(F)c1F` [hexafluorobenzene], the “logP (water/octanol partition)” value [12] is listed as “nearly identical”.
